This passage reports MIC results from publication PMC11239830, “Synthetic macrolides overcoming MLSBK-resistant pathogens” (Cell Discovery, 2024).

Holding throughout (assay): MIC, broth microdilution
In assay [1] the test system is S. aureus. Format: cell-based, Staphylococcus aureus. The protocol: (§1) MICs were determined by the microdilution method according to the Clinical and Laboratory Standards Institute guidelines. […] Finally, the 96-well plates were incubated at 37 °C for 16–20 h to observe and record the results. […] The assay for MICs was replicated at least three times.
Assay [2] deals with S. pyogenes. It counts as cell-based, Streptococcus pyogenes. The note with it: S. pyogenes 12-206, c-ermTR. The protocol: as §1
Assay [3] has as its system S. pneumoniae. Format: cell-based, Streptococcus pneumoniae. The method, then: as §1
The subject of assay [4] is H. influenzae. It counts as cell-based, Haemophilus influenzae. The method, then: as §1
Where [5] appears, read: Staphylococcus aureus, S. aureus 15B196, c-ermB, read-out: MIC.
Where [6] appears, read: Staphylococcus aureus, S. aureus PU32, i-ermA, read-out: MIC.
Setting [7] is: Streptococcus pyogenes, read-out: MIC.
[8] abbreviates: Streptococcus pneumoniae, ATCC49619, S. pneumoniae ATCC49619, Ery-S, read-out: MIC.
[9] abbreviates: Streptococcus pneumoniae, S. pneumoniae 07P390, c-ermB, read-out: MIC.
[10] abbreviates: Streptococcus pneumoniae, S. pneumoniae PU09, mef, read-out: MIC.
The mark [11] stands for this setting: Haemophilus influenzae, ATCC49247, H. influenzae ATCC49247, Azi-S, read-out: MIC.

Converted amounts (≈) assume the structure as drawn. Like-named read-outs stand apart in the source and are kept apart here.

Consider `CC[C@H]1OC(=O)[C@H](C)[C@@H](OC(=O)NCCOCCC#Cc2ccc3c(c2)c(=O)c(C(=O)O)cn3C2CC2)[C@H](C)[C@@H](O[C@@H]2O[C@H](C)C[C@H](N(C)C)[C@H]2O)[C@](C)(O)C[C@@H](C)CN(C)[C@H](C)[C@H]2OC(=O)O[C@@]21C` [116a], for which the MIC in assay [1] (S. aureus 15B196, c-ermB) stood at 512 µg/mL (≈ 521 µM); in assay [1] (S. aureus PU32, i-ermA), 128 µg/mL (≈ 130 µM); in assay [2], 512 µg/mL (≈ 521 µM); in assay [3] (S. pneumoniae 07P390, c-ermB), 512 µg/mL (≈ 521 µM); in assay [3] (S. pneumoniae ATCC49619, Ery-S), 4 µg/mL (≈ 4.07 µM); in assay [3] (S. pneumoniae PU09, mef), 8 µg/mL (≈ 8.14 µM). This compound showed an MIC in assay [4] (H. influenzae ATCC49247, Azi-S) of 64 µg/mL (≈ 65.1 µM).

In the case of `CC[C@H]1OC(=O)[C@H](C)[C@@H](OC(=O)NCCCCCC#Cc2ccc3c(=O)c(C(=O)NO)cn(C4CC4)c3c2)[C@H](C)[C@@H](O[C@@H]2O[C@H](C)C[C@H](N(C)C)[C@H]2O)[C@](C)(OC)C[C@@H](C)C(=NOC)[C@H](C)[C@H]2OC(=O)O[C@@]21C` [57e], the MIC in assay [1] (S. aureus 15B196, c-ermB) is 128 µg/mL (≈ 125 µM); in assay [1] (S. aureus PU32, i-ermA) it was 16 µg/mL (≈ 15.6 µM); in assay [2], 128 µg/mL (≈ 125 µM); in assay [3] (S. pneumoniae 07P390, c-ermB), 2 µg/mL (≈ 1.95 µM); in assay [3] (S. pneumoniae ATCC49619, Ery-S) it was 0.016 µg/mL (≈ 0.0156 µM); in assay [3] (S. pneumoniae PU09, mef), 0.5 µg/mL (≈ 0.488 µM). This compound also gave an MIC in assay [4] (H. influenzae ATCC49247, Azi-S) of 32 µg/mL (≈ 31.2 µM).

`CCC1OC(=O)C(C)C(OC(=O)NCCCCCC#Cc2ccc3c(c2)c(=O)c(C(=O)O)cn3C2CC2)C(C)C(OC2OC(C)CC(N(C)C)C2O)C(C)(OC)CC(C)C(=NOC)C(C)C2OC(=O)OC12C` (stereo not drawn) [57a]: the MIC in assay [1] (setting [5]) turned out to be 128 µg/mL (≈ 127 µM); in assay [1] (setting [6]), 16 µg/mL (≈ 15.9 µM); in assay [2] (setting [7]), 32 µg/mL (≈ 31.7 µM); in assay [3] (setting [8]) it was 0.25 µg/mL (≈ 0.248 µM); in assay [3] (setting [9]) it was 64 µg/mL (≈ 63.4 µM); in assay [3] (setting [10]), 1 µg/mL (≈ 0.991 µM). The MIC in assay [4] (setting [11]) is greater than 256 µg/mL.

With `CC[C@H]1OC(=O)[C@H](C)[C@@H](OC(=O)NCCOCCC#Cc2ccc3c(=O)c(C(=O)O)cn(C4CC4)c3c2)[C@H](C)[C@@H](O[C@@H]2O[C@H](C)C[C@H](N(C)C)[C@H]2O)[C@](C)(O)C[C@@H](C)CN(C)[C@H](C)[C@H]2OC(=O)O[C@@]21C` [116c], the MIC in assay [1] (S. aureus 15B196, c-ermB) is 512 µg/mL (≈ 521 µM); in assay [1] (S. aureus PU32, i-ermA), 32 µg/mL (≈ 32.5 µM); in assay [2], 8 µg/mL (≈ 8.14 µM); in assay [3] (S. pneumoniae 07P390, c-ermB), 4 µg/mL (≈ 4.07 µM); in assay [3] (S. pneumoniae ATCC49619, Ery-S) it was 0.12 µg/mL (≈ 0.122 µM); in assay [3] (S. pneumoniae PU09, mef) it was 1 µg/mL (≈ 1.02 µM). In assay [4] (H. influenzae ATCC49247, Azi-S), this compound displayed an MIC of 8 µg/mL (≈ 8.14 µM).

Take `CC[C@H]1OC(=O)[C@H](C)[C@@H](OC(=O)NCCCCCCCCc2ccc3c(c2)c(=O)c(C(N)=O)cn3C2CC2)[C@H](C)[C@@H](O[C@@H]2O[C@H](C)C[C@H](N(C)C)[C@H]2O)[C@](C)(OC)C[C@@H](C)C(=NOC)[C@H](C)[C@H]2OC(=O)O[C@@]21C` [62b]: the MIC is greater than 256 µg/mL in assay [1] (S. aureus 15B196, c-ermB); 128 µg/mL (≈ 125 µM) in assay [1] (S. aureus PU32, i-ermA); 16 µg/mL (≈ 15.6 µM) in assay [2]; 32 µg/mL (≈ 31.2 µM) in assay [3] (S. pneumoniae 07P390, c-ermB); 0.5 µg/mL (≈ 0.487 µM) in assay [3] (S. pneumoniae ATCC49619, Ery-S); 4 µg/mL (≈ 3.9 µM) in assay [3] (S. pneumoniae PU09, mef). For the same compound, the MIC in assay [4] (H. influenzae ATCC49247, Azi-S) is greater than 256 µg/mL.

In the case of `CC[C@H]1OC(=O)[C@H](C)[C@@H](OC(=O)NCCCCCCC#Cc2ccc3c(=O)c(C(=O)O)cn(C4CC4)c3c2)[C@H](C)[C@@H](O[C@@H]2O[C@H](C)C[C@H](N(C)C)[C@H]2O)[C@](C)(OC)C[C@@H](C)C(=NOC)[C@H](C)[C@H]2OC(=O)O[C@@]21C` [58c], the MIC was found to be 64 µg/mL (≈ 62.5 µM) in assay [1] (S. aureus 15B196, c-ermB); 8 µg/mL (≈ 7.82 µM) in assay [1] (S. aureus PU32, i-ermA); 2 µg/mL (≈ 1.95 µM) in assay [2]; 1 µg/mL (≈ 0.977 µM) in assay [3] (S. pneumoniae 07P390, c-ermB); 0.25 µg/mL (≈ 0.244 µM) in assay [3] (S. pneumoniae ATCC49619, Ery-S); 0.25 µg/mL (≈ 0.244 µM) in assay [3] (S. pneumoniae PU09, mef). In assay [4] (H. influenzae ATCC49247, Azi-S), this compound registered an MIC of 32 µg/mL (≈ 31.3 µM).

Regarding `CC[C@H]1OC(=O)[C@H](C)[C@@H](OC(=O)NCCCC#Cc2ccc3c(=O)c(C(=O)O)cn(C4CC4)c3c2)[C@H](C)[C@@H](O[C@@H]2O[C@H](C)C[C@H](N(C)C)[C@H]2O)[C@](C)(O)C[C@@H](C)CN(C)[C@H](C)[C@H]2OC(=O)O[C@@]21C` [108c], the MIC was determined as 512 µg/mL (≈ 537 µM) in assay [1] (S. aureus 15B196, c-ermB); 64 µg/mL (≈ 67.1 µM) in assay [1] (S. aureus PU32, i-ermA); 64 µg/mL (≈ 67.1 µM) in assay [2]; 128 µg/mL (≈ 134 µM) in assay [3] (S. pneumoniae 07P390, c-ermB); 0.25 µg/mL (≈ 0.262 µM) in assay [3] (S. pneumoniae ATCC49619, Ery-S); 1 µg/mL (≈ 1.05 µM) in assay [3] (S. pneumoniae PU09, mef). Besides, the MIC in assay [4] (H. influenzae ATCC49247, Azi-S) was determined as 8 µg/mL (≈ 8.39 µM).

For the compound `CCC1OC(=O)C(C)C(OC(=O)NCCCOCCC#Cc2ccc3c(=O)c(C(=O)O)cn(C4CC4)c3c2)C(C)C(OC2OC(C)CC(N(C)C)C2O)C(C)(OC)CC(C)C(=NOC)C(C)C2OC(=O)OC12C` (stereo not drawn) [72c], the MIC is 32 µg/mL (≈ 31.2 µM) in assay [1] (setting [5]); 2 µg/mL (≈ 1.95 µM) in assay [1] (setting [6]); 1 µg/mL (≈ 0.975 µM) in assay [2] (setting [7]); no more than 0.008 µg/mL in assay [3] (setting [8]); 0.12 µg/mL (≈ 0.117 µM) in assay [3] (setting [9]); no more than 0.008 µg/mL in assay [3] (setting [10]). The MIC in assay [4] (setting [11]) was found to be 16 µg/mL (≈ 15.6 µM).

With `CC[C@H]1OC(=O)[C@H](C)[C@@H](OC(=O)NCCCCCCCCCc2ccc3c(c2)c(=O)c(C(N)=O)cn3C2CC2)[C@H](C)[C@@H](O[C@@H]2O[C@H](C)C[C@H](N(C)C)[C@H]2O)[C@](C)(OC)C[C@@H](C)C(=NOC)[C@H](C)[C@H]2OC(=O)O[C@@]21C` [63b], the MIC was greater than 256 µg/mL in assay [1] (S. aureus 15B196, c-ermB); 64 µg/mL (≈ 61.5 µM) in assay [1] (S. aureus PU32, i-ermA); 16 µg/mL (≈ 15.4 µM) in assay [2]; 16 µg/mL (≈ 15.4 µM) in assay [3] (S. pneumoniae 07P390, c-ermB); 2 µg/mL (≈ 1.92 µM) in assay [3] (S. pneumoniae ATCC49619, Ery-S); 4 µg/mL (≈ 3.85 µM) in assay [3] (S. pneumoniae PU09, mef). Moreover, the MIC in assay [4] (H. influenzae ATCC49247, Azi-S) was greater than 256 µg/mL.

As to `CC[C@H]1OC(=O)[C@H](C)[C@@H](OC(=O)NCCCOCCC#Cc2ccc3c(=O)c(C(=O)O)c[nH]c3c2)[C@H](C)[C@@H](O[C@@H]2O[C@H](C)C[C@H](N(C)C)[C@H]2O)[C@](C)(OC)C[C@@H](C)C(=O)[C@H](C)[C@H]2NC(=O)O[C@@]21C` [95i], the MIC in assay [1] (setting [5]) is 128 µg/mL (≈ 134 µM); in assay [1] (setting [6]), 8 µg/mL (≈ 8.38 µM); in assay [2] (setting [7]), 1 µg/mL (≈ 1.05 µM); in assay [3] (setting [8]), 0.12 µg/mL (≈ 0.126 µM); in assay [3] (setting [9]) it was 1 µg/mL (≈ 1.05 µM); in assay [3] (setting [10]), 0.5 µg/mL (≈ 0.523 µM). Also, in assay [4] (setting [11]), the MIC came out at 16 µg/mL (≈ 16.8 µM).

Take `CC[C@H]1OC(=O)[C@H](C)[C@@H](OC(=O)NCCCCCCCc2ccc3c(c2)c(=O)c(C(N)=O)cn3C2CC2)[C@H](C)[C@@H](O[C@@H]2O[C@H](C)C[C@H](N(C)C)[C@H]2O)[C@](C)(OC)C[C@@H](C)C(=NOC)[C@H](C)[C@H]2OC(=O)O[C@@]21C` [61b]: the MIC in assay [1] (S. aureus 15B196, c-ermB) is greater than 256 µg/mL; in assay [1] (S. aureus PU32, i-ermA) it was 64 µg/mL (≈ 63.2 µM); in assay [2], 16 µg/mL (≈ 15.8 µM); in assay [3] (S. pneumoniae 07P390, c-ermB), 16 µg/mL (≈ 15.8 µM); in assay [3] (S. pneumoniae ATCC49619, Ery-S), 1 µg/mL (≈ 0.988 µM); in assay [3] (S. pneumoniae PU09, mef), 1 µg/mL (≈ 0.988 µM). In assay [4] (H. influenzae ATCC49247, Azi-S), this compound had an MIC greater than 256 µg/mL.

As for `CC[C@H]1OC(=O)[C@H](C)[C@@H](OC(=O)NCCCCCCc2ccc3c(c2)c(=O)c(C(N)=O)cn3C2CC2)[C@H](C)[C@@H](O[C@@H]2O[C@H](C)C[C@H](N(C)C)[C@H]2O)[C@](C)(OC)C[C@@H](C)C(=NOC)[C@H](C)[C@H]2OC(=O)O[C@@]21C` [60b], the MIC in assay [1] (S. aureus 15B196, c-ermB) is greater than 256 µg/mL; in assay [1] (S. aureus PU32, i-ermA) it was 128 µg/mL (≈ 128 µM); in assay [2], 32 µg/mL (≈ 32.1 µM); in assay [3] (S. pneumoniae 07P390, c-ermB), 32 µg/mL (≈ 32.1 µM); in assay [3] (S. pneumoniae ATCC49619, Ery-S), 0.25 µg/mL (≈ 0.25 µM); in assay [3] (S. pneumoniae PU09, mef) it was 1 µg/mL (≈ 1 µM). Also, the MIC in assay [4] (H. influenzae ATCC49247, Azi-S) was greater than 256 µg/mL.
